Biological target: T1, Rel/Spo (D. radiodurans) (Deinococcus radiodurans, UniProt Q9RTC7)
T1 construct: gene DR_1838; full length, His-tagged (anti-His detection), expressed in E. coli BL21 CodonPlus
T1 sequence (Q9RTC7 1-787): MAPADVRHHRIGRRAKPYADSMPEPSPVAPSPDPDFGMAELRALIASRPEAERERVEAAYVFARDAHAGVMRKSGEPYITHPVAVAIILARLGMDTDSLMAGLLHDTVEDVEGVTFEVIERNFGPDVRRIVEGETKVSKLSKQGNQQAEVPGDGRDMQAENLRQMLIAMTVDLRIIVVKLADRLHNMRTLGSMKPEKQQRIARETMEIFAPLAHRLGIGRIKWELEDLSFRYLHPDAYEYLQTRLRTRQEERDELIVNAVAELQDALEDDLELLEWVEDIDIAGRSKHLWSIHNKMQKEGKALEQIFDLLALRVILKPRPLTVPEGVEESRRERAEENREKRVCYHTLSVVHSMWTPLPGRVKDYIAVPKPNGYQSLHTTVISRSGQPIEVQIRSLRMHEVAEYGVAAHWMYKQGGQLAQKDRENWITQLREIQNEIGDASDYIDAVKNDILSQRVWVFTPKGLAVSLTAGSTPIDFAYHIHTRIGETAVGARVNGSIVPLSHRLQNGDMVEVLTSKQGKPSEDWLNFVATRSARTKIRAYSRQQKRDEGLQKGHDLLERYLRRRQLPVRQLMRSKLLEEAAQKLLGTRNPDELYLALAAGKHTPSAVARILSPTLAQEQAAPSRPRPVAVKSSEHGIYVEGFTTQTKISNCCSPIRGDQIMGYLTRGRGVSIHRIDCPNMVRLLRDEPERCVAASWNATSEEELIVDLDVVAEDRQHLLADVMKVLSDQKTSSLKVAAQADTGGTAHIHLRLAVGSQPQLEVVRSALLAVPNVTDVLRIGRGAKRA
Test: (p)ppGpp synthesis from alpha-32P-GTP, PEI-TLC autoradiography
Assay type: biochemical
Settings: 0.5 mM GTP, 4 mM ATP, 10 mM MgCl2, pH 7.4, isolated ribosomes; inhibitor concentration only in figure

CC(C)C(=O)Nc1nc2c(ncn2[C@H]2C[C@H](OC(=O)NCC(=O)NCC(=O)O)[C@@H](COC(=O)NCC(=O)NCC(=O)O)O2)c(=O)[nH]1 [Relacin]
% inhibition at highest Relacin concentration: ~ 80%
